From patent EP0511903B1, “Conjugate of calcitonin and polyethylene glycol” (TEVA PHARMACEUTICAL INDUSTRIES LTD., priority 1991, dated 1998)
Ends that are not written are not given here. amino‑PEG = not defined here

Tested on: 2 anticorps monoclonaux reconnaissant 2 épitopes différents sur la calcitonine humaine
Test: Immunoradiometric assay (IRMA) for human calcitonin using 2 monoclonal antibodies
Type: binding
Conditions: IRMA with 2 monoclonal antibodies
Source text: Un conjugué de polyéthylène glycol aminé couplé sur l'acide aspartique de la calcitonine humaine a été synthétisé suivant la méthode décrite à l'exemple 2. On dispose d'un dosage immunoradiométrique pour la Calcitonine humaine, utilisant 2 anticorps monoclonaux reconnaissant 2 épitopes différents sur la calcitonine humaine. Par ce dosage, le dérivé PEG-NH2-CTH n'est plus reconnu qu'à 0.4 % par rapport à la calcitonine humaine. Ceci signifie qu'au moins un épitope de la calcitonine humaine se trouve masqué par le couplage en position 15 d'une molécule de PEG. Il y a donc une modification de l'antigénicité de la calcitonine, de par son couplage au PEG, qui diminue fortement sa reconnaissance par des anticorps.

## PEG NH2-CThumaine: conjugué de polyéthylène glycol aminé couplé sur l'acide aspartique (position 15) de la calcitonine humaine (CGNLSTCMLGTYTQD(amino‑PEG)FNKFHTFPQTAIGVGAP; ends and bridges not checked; UniProt P01258 85-116, looked up)
  reconnaissance par rapport à la calcitonine humaine: 0.4%
